Test [1] deals with T1, mineralocorticoid receptor (Homo sapiens, UniProt P08235).
T1 sequence (P08235 1-984): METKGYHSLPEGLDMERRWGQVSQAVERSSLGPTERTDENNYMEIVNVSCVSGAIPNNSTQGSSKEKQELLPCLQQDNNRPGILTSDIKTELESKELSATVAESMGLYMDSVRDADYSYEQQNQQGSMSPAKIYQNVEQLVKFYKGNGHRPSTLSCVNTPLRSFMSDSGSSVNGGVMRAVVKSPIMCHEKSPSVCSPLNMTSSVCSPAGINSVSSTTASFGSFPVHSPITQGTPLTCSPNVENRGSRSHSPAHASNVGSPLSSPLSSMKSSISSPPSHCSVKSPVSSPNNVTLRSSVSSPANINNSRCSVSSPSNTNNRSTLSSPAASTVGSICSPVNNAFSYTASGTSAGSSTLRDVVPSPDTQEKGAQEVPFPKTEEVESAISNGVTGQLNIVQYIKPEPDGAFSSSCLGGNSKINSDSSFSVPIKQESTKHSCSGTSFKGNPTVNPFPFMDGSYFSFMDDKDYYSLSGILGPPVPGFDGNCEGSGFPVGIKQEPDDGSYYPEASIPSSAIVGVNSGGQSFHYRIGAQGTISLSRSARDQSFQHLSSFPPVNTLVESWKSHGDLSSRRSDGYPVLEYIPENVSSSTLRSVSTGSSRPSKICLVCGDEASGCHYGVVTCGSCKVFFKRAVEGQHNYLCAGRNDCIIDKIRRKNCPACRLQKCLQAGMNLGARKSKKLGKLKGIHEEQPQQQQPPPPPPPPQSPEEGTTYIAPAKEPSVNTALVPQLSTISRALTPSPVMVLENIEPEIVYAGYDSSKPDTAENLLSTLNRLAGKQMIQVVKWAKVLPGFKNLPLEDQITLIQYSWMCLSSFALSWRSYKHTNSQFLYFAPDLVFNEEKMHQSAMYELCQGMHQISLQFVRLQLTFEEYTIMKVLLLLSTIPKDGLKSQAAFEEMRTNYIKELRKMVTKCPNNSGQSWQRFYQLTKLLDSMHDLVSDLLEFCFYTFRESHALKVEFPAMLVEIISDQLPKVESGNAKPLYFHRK
The test can be described thus: Antimineralocorticoid action by transactivation test (MDCK reporter cells).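 As to Emax: percent inhibition of the aldosterone-stimulated reporter signal.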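 As to Mineralocorticoid receptor Antagonism efficacy: percent inhibition of the aldosterone-stimulated reporter signal.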 The class given is cell-based. On the set-up: expressed in transfected cells; host or cells: MDCK cells. The following applies: for Emax: read-out: Mineralocorticoid receptor Antagonism efficacy. The procedure, abridged:
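MDCK reporter cells expressing human mineralocorticoid receptor, transiently carrying luciferase under a steroid hormone-responsive promoter.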

In test [2] the target is T1, mineralocorticoid receptor. The test can be described thus: Mineralocorticoid receptor binding test. On the set-up: made in house; host or cells: Hi5 insect cells (cytosol). The following applies: reference substance 3H-aldosterone, cytosol from MR-expressing insect cells (Hi5). The procedure, abridged: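 Competitive binding measured with cytosol from Hi5 insect cells expressing the receptor. Displacement of ^3H-aldosterone as reference ligand gave the readout.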

Test [3] concerns the target T2, androgen receptor (Homo sapiens, UniProt P10275).
T2 sequence (P10275 1-920): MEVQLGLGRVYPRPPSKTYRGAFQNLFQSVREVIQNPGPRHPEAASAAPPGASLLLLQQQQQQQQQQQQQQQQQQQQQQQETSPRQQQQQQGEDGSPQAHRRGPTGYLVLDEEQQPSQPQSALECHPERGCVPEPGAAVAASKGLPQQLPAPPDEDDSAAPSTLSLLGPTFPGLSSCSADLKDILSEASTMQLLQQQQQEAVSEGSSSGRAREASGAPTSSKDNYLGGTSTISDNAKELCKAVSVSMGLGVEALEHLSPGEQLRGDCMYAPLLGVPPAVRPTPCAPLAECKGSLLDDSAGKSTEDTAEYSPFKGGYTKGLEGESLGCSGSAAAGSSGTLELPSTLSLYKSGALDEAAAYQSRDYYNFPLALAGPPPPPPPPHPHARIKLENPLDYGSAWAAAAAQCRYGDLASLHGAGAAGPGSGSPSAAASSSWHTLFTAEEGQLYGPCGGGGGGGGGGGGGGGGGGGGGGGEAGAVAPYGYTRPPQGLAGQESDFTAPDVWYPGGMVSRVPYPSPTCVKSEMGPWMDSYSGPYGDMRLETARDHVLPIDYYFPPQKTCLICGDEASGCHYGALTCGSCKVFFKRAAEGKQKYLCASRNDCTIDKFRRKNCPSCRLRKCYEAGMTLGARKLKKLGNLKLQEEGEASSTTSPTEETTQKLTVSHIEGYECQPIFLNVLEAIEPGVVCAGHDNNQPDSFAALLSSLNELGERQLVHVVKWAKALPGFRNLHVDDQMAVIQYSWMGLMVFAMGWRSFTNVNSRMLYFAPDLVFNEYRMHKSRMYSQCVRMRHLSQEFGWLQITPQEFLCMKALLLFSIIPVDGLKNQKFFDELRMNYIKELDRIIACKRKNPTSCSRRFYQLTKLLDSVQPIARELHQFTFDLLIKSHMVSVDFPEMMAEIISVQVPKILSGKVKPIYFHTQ
The test can be described thus: Androgen receptor binding test. The settings on record: reference substance 3H-testosterone. On the set-up: expressed in transfected cells.

Test [4] has as its target T2, androgen receptor. The test can be described thus: Androgenic/antiandrogenic action by transactivation test (PC3 reporter cells). The class given is cell-based. On the set-up: expressed in transfected cells; host or cells: PC3 cells. The method, then:
The test compounds were added eight hours later, and the cells were incubated with the compounds for 16 hours. The tests were carried out in triplicate. At the end of incubation the medium containing the effector was removed and replaced with lysis buffer. After luciferase assay substrate (Promega, #E1501) had been added, the 96-well plates were then put in a microplate luminometer (Pherastar, BMG Labtech), and the luminescence was measured. The IC50 values were evaluated using software for calculating dose-effect relations.
6. Determination of Androgenic/Antiandrogenic Action by Means of Transactivation Tests:
The androgenic/antiandrogenic action of the test substances was determined as for the transactivation tests described above.
The following modifications were made: In this case reporter cell lines were used (PC3 cells) that express the androgen receptor, and a reporter construct that contains luciferase under the control of a steroid hormone-responsive promoter.
For determination of the antiandrogenic efficacy, 0.05 nM R1881 was added to the cells, in order to achieve almost maximum stimulation of the reporter gene.

The mark [5] stands for this setting: PC-3, read-out: Androgen receptor Agonism efficacy.
[6] abbreviates: PC-3, read-out: Androgen receptor Antagonism efficacy.

The record followed here is patent US20110015162A1, “15,16-Methylene-17-hydroxy-19-nor-21-carboxylic acid-steroid Y-lactone derivative, use thereof and medicinal products containing the derivative” (Bayer Schering Pharma Aktiengesellschaft, priority 2007, published 2011).

The IC50 is the concentration that gives 50% inhibition. What is called EC50 is the midpoint of the concentration-response curve. Low readings indicate a more potent agent, high ones a less potent agent.

Each structure is given as a SMILES string. Like-named read-outs stand apart in the source and are kept apart here.

`C[C@]12CC[C@H]3[C@@H](CCC4=C(Cl)C(=O)CC[C@@H]43)[C@@H]1[C@H]1C[C@H]1[C@@]21C=CC(=O)O1` [Example 18, 4-Chloro-17β-hydroxy-15α,16α-methylene-19-nor-17α-pregna-4,20(Z)-dien-3-one-21-carboxylic acid γ-lactone] returned an IC50 in test [1] of 830 nM. The Emax in test [1] (MDCK) was 37.3%; on androgen receptor [4] (setting [5]), 71.5%; at androgen receptor [4] (setting [6]) it was 5%. The “Mineralocorticoid receptor (MR) Competition factor” value (“Mineralocorticoid receptor” below) in test [2] amounted to 35.0. The “Androgen receptor Competition factor” value on androgen receptor [3] is on record as 7.3. At androgen receptor [4], this compound registered an EC50 of 12 nM.
Turning to `CC[C@]12CC[C@H]3[C@@H]([C@@H]4C[C@@H]4C4=CC(=O)CC[C@@H]43)[C@@H]1[C@@H]1C[C@@H]1[C@@]21C=CC(=O)O1` [Example 2, 6α,7α;15β,16β-Bismethylene-17β-hydroxy-18-methyl-19-nor-17α-pregna-4,20(Z)-dien-3-one-21-carboxylic acid γ-lactone], half-maximal inhibition in test [1] (IC50) was put at 230 nM. The figures for the Emax (in test [1] (MDCK); at androgen receptor [4] (setting [5]); at androgen receptor [4] (setting [6])) were 112%, 32.6% and 5%, respectively. In test [2], the “Mineralocorticoid receptor” value is listed as 4.4. Further, at androgen receptor [3], the “Androgen receptor Competition factor” value is listed as 49.6. Also, the midpoint of the response on androgen receptor [4], the EC50, lay at 130 nM.
Compound `C[C@]12CC[C@H]3[C@@H](CC4(CC4)C4=CC(=O)CC[C@@H]43)[C@@H]1[C@@H]1C[C@@H]1[C@@]21C=CC(=O)O1` [Example 22, 6,6-(1,2-Ethanediyl)-17β-hydroxy-15β,16β-methylene-19-nor-17α-pregna-4,20(Z)dien-3-one-21-carboxylic acid γ-lactone] returned an IC50 in test [1] of 49 nM. The Emax in test [1] (MDCK) stood at 91.2%; on androgen receptor [4] (setting [5]), 98.6%; on androgen receptor [4] (setting [6]) it was 5%. The “Mineralocorticoid receptor” value in test [2] stood at 0.8. The “Androgen receptor Competition factor” value on androgen receptor [3] stood at 2.0. In addition, the EC50 on androgen receptor [4] came to 1.7 nM.
For `C[C@@H]1CC2=CC(=O)CC[C@@H]2[C@H]2CC[C@@]3(C)[C@@H]([C@H]4C[C@H]4[C@@]34C=CC(=O)O4)[C@@H]21` [Example 14A, 17β-Hydroxy-7α-methyl-15α,16α-methylene-19-nor-17α-pregna-4,20(Z)-dien-3-one-21-carboxylic acid γ-lactone], the values for the IC50 (in test [1]; against androgen receptor [4]) were 3 nM and 1.5 nM, respectively. For the same compound, the values for the Emax (in test [1] (MDCK); on androgen receptor [4] (setting [5]); at androgen receptor [4] (setting [6])) were 83%, 41.8% and 21%, respectively. Also, in test [2], the “Mineralocorticoid receptor” value worked out at 1.3. Further, the “Androgen receptor Competition factor” value at androgen receptor [3] is recorded as 2.3. At androgen receptor [4], this compound registered an EC50 of 13 nM.
Turning to `C[C@]12CC[C@H]3[C@@H](C=CC4=CC(=O)CC[C@@H]43)[C@@H]1[C@H]1C[C@H]1[C@@]21C=CC(=O)O1` [Example 13, 17β-Hydroxy-15α,16α-methylene-19-nor-17α-pregna-4,6,20(Z)-trien-3-one-21-carboxylic acid γ-lactone], the IC50 came out at 12 nM in test [1] (MDCK cells, with 1 nM aldosterone, read-out: Mineralocorticoid receptor Antagonism IC50) and 100 nM against androgen receptor [4]. Also, the Emax in test [1] (MDCK cells, with 1 nM aldosterone) came to 116%; on androgen receptor [4] (setting [5]), 14.4%; at androgen receptor [4] (setting [6]), 47.4%. Besides, in test [2], the “Mineralocorticoid receptor” value amounted to 1.6. For the same compound, the “Androgen receptor Competition factor” value at androgen receptor [3] amounted to 163.2. Also, the EC50 at androgen receptor [4] is 120 nM.
As to `C[C@]12CC[C@H]3[C@@H](CCC4=CC(=O)CC[C@@H]43)[C@@H]1[C@H]1C[C@H]1[C@@]21C=CC(=O)O1` [Example 12, 17β-Hydroxy-15α,16α-methylene-19-nor-17α-pregna-4,20(Z)-dien-3-one-21-carboxylic acid γ-lactone], the IC50 in test [1] was determined as 100 nM; at androgen receptor [4], 86 nM. Besides, the Emax in test [1] (MDCK) was 71.4%; on androgen receptor [4] (setting [5]), 14.9%; on androgen receptor [4] (setting [6]) it was 61.7%. In test [2], the “Mineralocorticoid receptor” value was determined as 2.9. For the same compound, the “Androgen receptor Competition factor” value at androgen receptor [3] is reported as 16.5. Also, the EC50 at androgen receptor [4] turned out to be 130 nM.
